# How the values were obtained:
# Test in all cases: relative viability (nuclei count vs DMSO), 5 days (fraction); higher = more cells survive
# CAP-232 + Alpelisib = compound: C[C@H]([C@@H](C(=O)N)NC(=O)[C@@H]1CSSC[C@@H](C(=O)N[C@H](C(=O)N[C@@H](C(=O)N[C@H](C(=O)N1)CCCCN)CC2=CNC3=CC=CC=C32)CC4=CC=C(C=C4)O)NC(=O)[C@@H](CC5=CC=CC=C5)N)O [CAP-232] + Cc1nc(NC(=O)N2CCC[C@H]2C(N)=O)sc1-c1ccnc(C(C)(C)C(F)(F)F)c1 [Alpelisib] (partner 2 µM)
# Method in brief: (§1)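 The day after seeding in 1536-well plates, lung cancer cell lines were treated by pin tool with a single drug, or with a fixed anchor-drug dose together with five library-drug doses (not always all listed) in √10 steps. After 5 days, a combined fix-and-stain solution (final 0.05% Triton X-100, 1% formaldehyde, 1 ug/ml Hoechst) was added. Nuclei counted on 4× images gave relative viability as treated counts over vehicle counts, reported as the median of duplicate plates.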
# CAP-232 + Lapatinib = compound: C[C@H]([C@@H](C(=O)N)NC(=O)[C@@H]1CSSC[C@@H](C(=O)N[C@H](C(=O)N[C@@H](C(=O)N[C@H](C(=O)N1)CCCCN)CC2=CNC3=CC=CC=C32)CC4=CC=C(C=C4)O)NC(=O)[C@@H](CC5=CC=CC=C5)N)O [CAP-232] + CS(=O)(=O)CCNCc1ccc(-c2ccc3ncnc(Nc4ccc(OCc5cccc(F)c5)c(Cl)c4)c3c2)o1 [Lapatinib] (partner 2 µM)
# Method in brief: as §1
# CAP-232 + Olaparib = compound: C[C@H]([C@@H](C(=O)N)NC(=O)[C@@H]1CSSC[C@@H](C(=O)N[C@H](C(=O)N[C@@H](C(=O)N[C@H](C(=O)N1)CCCCN)CC2=CNC3=CC=CC=C32)CC4=CC=C(C=C4)O)NC(=O)[C@@H](CC5=CC=CC=C5)N)O [CAP-232] + O=C(c1cc(Cc2n[nH]c(=O)c3ccccc23)ccc1F)N1CCN(C(=O)C2CC2)CC1 [Olaparib] (partner 8 µM)
# Method in brief: as §1
# CAP-232 + Bortezomib = compound: C[C@H]([C@@H](C(=O)N)NC(=O)[C@@H]1CSSC[C@@H](C(=O)N[C@H](C(=O)N[C@@H](C(=O)N[C@H](C(=O)N1)CCCCN)CC2=CNC3=CC=CC=C32)CC4=CC=C(C=C4)O)NC(=O)[C@@H](CC5=CC=CC=C5)N)O [CAP-232] + CC(C)C[C@H](NC(=O)[C@H](Cc1ccccc1)NC(=O)c1cnccn1)B(O)O [Bortezomib] (partner 0.002 µM)
# Method in brief: as §1
# CAP-232 + Navitoclax = compound: C[C@H]([C@@H](C(=O)N)NC(=O)[C@@H]1CSSC[C@@H](C(=O)N[C@H](C(=O)N[C@@H](C(=O)N[C@H](C(=O)N1)CCCCN)CC2=CNC3=CC=CC=C32)CC4=CC=C(C=C4)O)NC(=O)[C@@H](CC5=CC=CC=C5)N)O [CAP-232] + CC1(C)CCC(c2ccc(Cl)cc2)=C(CN2CCN(c3ccc(C(=O)NS(=O)(=O)c4ccc(N[C@H](CCN5CCOCC5)CSc5ccccc5)c(S(=O)(=O)C(F)(F)F)c4)cc3)CC2)C1 [Navitoclax] (partner 0.5 µM)
# Method in brief: as §1
# CAP-232 + Linsitinib = compound: C[C@H]([C@@H](C(=O)N)NC(=O)[C@@H]1CSSC[C@@H](C(=O)N[C@H](C(=O)N[C@@H](C(=O)N[C@H](C(=O)N1)CCCCN)CC2=CNC3=CC=CC=C32)CC4=CC=C(C=C4)O)NC(=O)[C@@H](CC5=CC=CC=C5)N)O [CAP-232] + C[C@]1(O)C[C@@H](c2nc(-c3ccc4ccc(-c5ccccc5)nc4c3)c3c(N)nccn32)C1 [Linsitinib] (partner 1 µM)
# Method in brief: as §1
# CAP-232 + Foretinib = compound: C[C@H]([C@@H](C(=O)N)NC(=O)[C@@H]1CSSC[C@@H](C(=O)N[C@H](C(=O)N[C@@H](C(=O)N[C@H](C(=O)N1)CCCCN)CC2=CNC3=CC=CC=C32)CC4=CC=C(C=C4)O)NC(=O)[C@@H](CC5=CC=CC=C5)N)O [CAP-232] + COc1cc2c(Oc3ccc(NC(=O)C4(C(=O)Nc5ccc(F)cc5)CC4)cc3F)ccnc2cc1OCCCN1CCOCC1 [Foretinib] (partner 0.25 µM)
# Method in brief: as §1
# CAP-232 + Crizotinib = compound: C[C@H]([C@@H](C(=O)N)NC(=O)[C@@H]1CSSC[C@@H](C(=O)N[C@H](C(=O)N[C@@H](C(=O)N[C@H](C(=O)N1)CCCCN)CC2=CNC3=CC=CC=C32)CC4=CC=C(C=C4)O)NC(=O)[C@@H](CC5=CC=CC=C5)N)O [CAP-232] + C[C@@H](Oc1cc(-c2cnn(C3CCNCC3)c2)cnc1N)c1c(Cl)ccc(F)c1Cl [Crizotinib] (partner 1 µM)
# Method in brief: as §1
# CAP-232 + Pictilisib = compound: C[C@H]([C@@H](C(=O)N)NC(=O)[C@@H]1CSSC[C@@H](C(=O)N[C@H](C(=O)N[C@@H](C(=O)N[C@H](C(=O)N1)CCCCN)CC2=CNC3=CC=CC=C32)CC4=CC=C(C=C4)O)NC(=O)[C@@H](CC5=CC=CC=C5)N)O [CAP-232] + CS(=O)(=O)N1CCN(Cc2cc3nc(-c4cccc5[nH]ncc45)nc(N4CCOCC4)c3s2)CC1 [Pictilisib] (partner 1 µM)
# Method in brief: as §1
# CAP-232 = compound: C[C@H]([C@@H](C(=O)N)NC(=O)[C@@H]1CSSC[C@@H](C(=O)N[C@H](C(=O)N[C@@H](C(=O)N[C@H](C(=O)N1)CCCCN)CC2=CNC3=CC=CC=C32)CC4=CC=C(C=C4)O)NC(=O)[C@@H](CC5=CC=CC=C5)N)O [CAP-232]
# Method in brief: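 Following overnight incubation at 37 °C, lung cancer cell lines in 1536-well plates were pinned with five library-drug doses (not always all listed) in √10 steps on vehicle-anchored plates. The cells then spent 5 days without medium change before a combined fix, permeabilisation and Hoechst stain, 4× imaging and MetaXpress nuclear counts. Viability is the treated-to-vehicle ratio of nuclei, taken as the median across plates. Only plates with control CV below 25% and at least one doubling passed.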
# CAP-232 + Dasatinib = compound: C[C@H]([C@@H](C(=O)N)NC(=O)[C@@H]1CSSC[C@@H](C(=O)N[C@H](C(=O)N[C@@H](C(=O)N[C@H](C(=O)N1)CCCCN)CC2=CNC3=CC=CC=C32)CC4=CC=C(C=C4)O)NC(=O)[C@@H](CC5=CC=CC=C5)N)O [CAP-232] + Cc1nc(Nc2ncc(C(=O)Nc3c(C)cccc3Cl)s2)cc(N2CCN(CCO)CC2)n1 [Dasatinib] (partner 0.075 µM)
# Method in brief: as §1
# CAP-232 + Luminespib = compound: C[C@H]([C@@H](C(=O)N)NC(=O)[C@@H]1CSSC[C@@H](C(=O)N[C@H](C(=O)N[C@@H](C(=O)N[C@H](C(=O)N1)CCCCN)CC2=CNC3=CC=CC=C32)CC4=CC=C(C=C4)O)NC(=O)[C@@H](CC5=CC=CC=C5)N)O [CAP-232] + CCNC(=O)c1noc(-c2cc(C(C)C)c(O)cc2O)c1-c1ccc(CN2CCOCC2)cc1 [Luminespib] (partner 0.01 µM)
# Method in brief: as §1
# CAP-232 + OSI-027 = compound: C[C@H]([C@@H](C(=O)N)NC(=O)[C@@H]1CSSC[C@@H](C(=O)N[C@H](C(=O)N[C@@H](C(=O)N[C@H](C(=O)N1)CCCCN)CC2=CNC3=CC=CC=C32)CC4=CC=C(C=C4)O)NC(=O)[C@@H](CC5=CC=CC=C5)N)O [CAP-232] + COc1cccc2cc(-c3nc([C@H]4CC[C@H](C(=O)O)CC4)n4ncnc(N)c34)[nH]c12 [OSI-027] (partner 0.5 µM)
# Method in brief: as §1
# CAP-232 + Phenformin = compound: C[C@H]([C@@H](C(=O)N)NC(=O)[C@@H]1CSSC[C@@H](C(=O)N[C@H](C(=O)N[C@@H](C(=O)N[C@H](C(=O)N1)CCCCN)CC2=CNC3=CC=CC=C32)CC4=CC=C(C=C4)O)NC(=O)[C@@H](CC5=CC=CC=C5)N)O [CAP-232] + N=C(N)NC(=N)NCCc1ccccc1 [Phenformin] (partner 250 µM)
# Method in brief: as §1
# CAP-232 + Tozasertib = compound: C[C@H]([C@@H](C(=O)N)NC(=O)[C@@H]1CSSC[C@@H](C(=O)N[C@H](C(=O)N[C@@H](C(=O)N[C@H](C(=O)N1)CCCCN)CC2=CNC3=CC=CC=C32)CC4=CC=C(C=C4)O)NC(=O)[C@@H](CC5=CC=CC=C5)N)O [CAP-232] + Cc1cc(Nc2cc(N3CCN(C)CC3)nc(Sc3ccc(NC(=O)C4CC4)cc3)n2)n[nH]1 [Tozasertib] (partner 0.1 µM)
# Method in brief: as §1
cell line,measurement,setting,value
NCI-H1299,relative viability,CAP-232 + Alpelisib; first compound 0.4 µM,1.04
same,relative viability,CAP-232 + Alpelisib; first compound 1.265 µM,1.05
same,relative viability,CAP-232 + Alpelisib; first compound 4 µM,1.03
same,relative viability,CAP-232 + Alpelisib; first compound 12.65 µM,1.08
same,relative viability,CAP-232 + Lapatinib; first compound 0.4 µM,1.03
same,relative viability,CAP-232 + Lapatinib; first compound 1.265 µM,0.963
same,relative viability,CAP-232 + Lapatinib; first compound 4 µM,0.908
same,relative viability,CAP-232 + Lapatinib; first compound 12.65 µM,0.96
same,relative viability,CAP-232 + Olaparib; first compound 0.4 µM,0.942
same,relative viability,CAP-232 + Olaparib; first compound 1.265 µM,1.01
same,relative viability,CAP-232 + Olaparib; first compound 4 µM,0.977
same,relative viability,CAP-232 + Olaparib; first compound 12.65 µM,0.934
same,relative viability,CAP-232 + Bortezomib; first compound 0.4 µM,1.02
same,relative viability,CAP-232 + Bortezomib; first compound 1.265 µM,1.02
same,relative viability,CAP-232 + Bortezomib; first compound 4 µM,1.06
same,relative viability,CAP-232 + Bortezomib; first compound 12.65 µM,1.01
same,relative viability,CAP-232 + Navitoclax; first compound 0.4 µM,1.04
same,relative viability,CAP-232 + Navitoclax; first compound 1.265 µM,0.991
same,relative viability,CAP-232 + Navitoclax; first compound 4 µM,1.1
same,relative viability,CAP-232 + Navitoclax; first compound 12.65 µM,1.1
same,relative viability,CAP-232 + Linsitinib; first compound 0.4 µM,1.15
same,relative viability,CAP-232 + Linsitinib; first compound 1.265 µM,0.92
same,relative viability,CAP-232 + Linsitinib; first compound 4 µM,1.06
same,relative viability,CAP-232 + Linsitinib; first compound 12.65 µM,1.09
same,relative viability,CAP-232 + Foretinib; first compound 0.4 µM,1.09
same,relative viability,CAP-232 + Foretinib; first compound 1.265 µM,1.06
same,relative viability,CAP-232 + Foretinib; first compound 4 µM,1.08
same,relative viability,CAP-232 + Foretinib; first compound 12.65 µM,1.05
same,relative viability,CAP-232 + Crizotinib; first compound 0.4 µM,0.955
same,relative viability,CAP-232 + Crizotinib; first compound 1.265 µM,0.952
same,relative viability,CAP-232 + Crizotinib; first compound 4 µM,0.941
same,relative viability,CAP-232 + Crizotinib; first compound 12.65 µM,1.02
same,relative viability,CAP-232 + Pictilisib; first compound 0.4 µM,0.747
same,relative viability,CAP-232 + Pictilisib; first compound 1.265 µM,0.746
same,relative viability,CAP-232 + Pictilisib; first compound 4 µM,0.626
same,relative viability,CAP-232 + Pictilisib; first compound 12.65 µM,0.589
same,relative viability,CAP-232; 0.4 µM,1.03
same,relative viability,CAP-232; 1.265 µM,1.01
same,relative viability,CAP-232; 4 µM,1.04
same,relative viability,CAP-232; 12.65 µM,1.02
NCI-H1623,relative viability,CAP-232 + Dasatinib; first compound 0.4 µM,0.612
same,relative viability,CAP-232 + Dasatinib; first compound 1.265 µM,0.47
same,relative viability,CAP-232 + Dasatinib; first compound 4 µM,0.521
same,relative viability,CAP-232 + Dasatinib; first compound 12.65 µM,0.742
same,relative viability,CAP-232 + Luminespib; first compound 0.4 µM,0.503
same,relative viability,CAP-232 + Luminespib; first compound 1.265 µM,0.467
same,relative viability,CAP-232 + Luminespib; first compound 4 µM,0.557
same,relative viability,CAP-232 + Luminespib; first compound 12.65 µM,0.359
same,relative viability,CAP-232 + OSI-027; first compound 0.4 µM,0.412
same,relative viability,CAP-232 + OSI-027; first compound 1.265 µM,0.495
same,relative viability,CAP-232 + OSI-027; first compound 4 µM,0.488
same,relative viability,CAP-232 + OSI-027; first compound 12.65 µM,0.38
same,relative viability,CAP-232 + Foretinib; first compound 0.4 µM,0.945
same,relative viability,CAP-232 + Foretinib; first compound 1.265 µM,0.802
same,relative viability,CAP-232 + Foretinib; first compound 4 µM,0.849
same,relative viability,CAP-232 + Foretinib; first compound 12.65 µM,0.769
same,relative viability,CAP-232 + Phenformin; first compound 0.4 µM,0.589
same,relative viability,CAP-232 + Phenformin; first compound 1.265 µM,0.579
same,relative viability,CAP-232 + Phenformin; first compound 4 µM,0.603
same,relative viability,CAP-232 + Phenformin; first compound 12.65 µM,0.566
same,relative viability,CAP-232 + Tozasertib; first compound 0.4 µM,0.713
same,relative viability,CAP-232 + Tozasertib; first compound 1.265 µM,0.411
same,relative viability,CAP-232 + Tozasertib; first compound 4 µM,0.465
same,relative viability,CAP-232 + Tozasertib; first compound 12.65 µM,0.632
same,relative viability,CAP-232; 0.4 µM,1.06
same,relative viability,CAP-232; 1.265 µM,1.02
same,relative viability,CAP-232; 4 µM,0.92
same,relative viability,CAP-232; 12.65 µM,1.01
